{
  "source": "patent US12173018B2",
  "about": "“Penicillin-binding protein inhibitors” (priority 2018, dated 2024)",
  "key": {"E. coli PBP1a": {"target": "E. coli PBP1a (Escherichia coli (strain K12), UniProt P02918)", "sequence (P02918 whole entry)": "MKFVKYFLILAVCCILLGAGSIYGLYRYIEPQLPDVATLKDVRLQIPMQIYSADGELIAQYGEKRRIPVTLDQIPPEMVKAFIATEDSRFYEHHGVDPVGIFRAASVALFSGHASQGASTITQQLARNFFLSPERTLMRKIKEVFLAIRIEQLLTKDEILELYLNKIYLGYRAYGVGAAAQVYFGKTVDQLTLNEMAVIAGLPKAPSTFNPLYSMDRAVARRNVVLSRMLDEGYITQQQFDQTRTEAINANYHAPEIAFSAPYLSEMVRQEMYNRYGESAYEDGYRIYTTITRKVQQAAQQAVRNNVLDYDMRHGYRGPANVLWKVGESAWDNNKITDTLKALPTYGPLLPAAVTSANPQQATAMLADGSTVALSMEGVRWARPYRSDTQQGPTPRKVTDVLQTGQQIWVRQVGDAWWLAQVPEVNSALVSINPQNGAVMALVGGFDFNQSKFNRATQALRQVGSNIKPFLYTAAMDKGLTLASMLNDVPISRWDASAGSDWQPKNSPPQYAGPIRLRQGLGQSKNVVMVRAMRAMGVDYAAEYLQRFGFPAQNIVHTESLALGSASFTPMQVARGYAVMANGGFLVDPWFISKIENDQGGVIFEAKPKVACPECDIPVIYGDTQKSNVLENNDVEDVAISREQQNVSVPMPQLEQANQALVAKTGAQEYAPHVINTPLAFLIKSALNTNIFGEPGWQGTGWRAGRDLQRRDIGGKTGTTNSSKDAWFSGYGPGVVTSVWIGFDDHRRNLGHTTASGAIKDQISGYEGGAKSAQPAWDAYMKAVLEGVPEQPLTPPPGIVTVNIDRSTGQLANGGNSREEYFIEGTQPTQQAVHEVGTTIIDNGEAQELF", "experiment": "Radioligand competition binding assay with 14C-labeled boronic acid probe, PBP1a", "outline": "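Purified E. coli PBP1a (0.1 μM) preincubated 60 min with test boronic acid inhibitor in 20 mM Tris pH 7.5, 500 mM NaCl, 0.1% Triton X-100, then 60 min with 20 μM ^14C-labeled boronic acid probe. Bound probe recovered by spin desalting and counted by scintillation; EC50 reported.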"}, "[1]": {"test_system": "E. coli DH5α empty pLBII vector control strain", "experiment": "microbe, parasite or virus in culture", "assay_type": "cell-based, Escherichia coli", "details": "Escherichia coli, read-out: Microbiological Activity (MIC in mg/L), E. coli DH5α/pLBII", "outline": "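Broth microdilution in cation-supplemented Mueller-Hinton broth used a starting inoculum of 5×10^5 CFU/mL of E. coli DH5α carrying empty pLBII vector. Plates were incubated 16–20 h at 37 °C. MIC was read visually as the lowest concentration showing no growth.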"}, "P. aeruginosa ATCC 27853": {"test_system": "P. aeruginosa ATCC 27853", "experiment": "Broth microdilution MIC, P. aeruginosa ATCC 27853", "assay_type": "cell-based", "details": "Pseudomonas aeruginosa", "protocol": "To determine the ability of test compounds to potentiate the inhibition of the growth of bacterial strains, classic cell based broth microdilution minimum inhibitory concentration (MIC) assays were employed. MIC assays are performed according to CLSI methods except where otherwise noted (CLSI, 2011 and CLSI, 2009). The reference type strain E. coli ATCC 25922, the wild-type parent strain E. coli AG100, the hyper-permeable E. coli 901C and E. coli D22 and the E. coli AG100A strain lacking the acrAB efflux pump encoding genes were used to determine the ability of the PBP inhibitors to penetrate the outer membrane of gram-negative bacteria and inhibit bacterial growth. […] The P. aeruginosa PAO1, P. aeruginosa ATCC 27853 and A. baumannii ATCC 19606, along with the hyper-permeable P. aeruginosa ATCC 35151 and an engineered efflux pump-compromised strain of P. aeruginosa (ΔmexAB-oprM) were used to determine the ability of PBP inhibitors to penetrate the outer membrane of P. aeruginosa and A. baumannii and assess antibacterial activity against these important gram-negative organisms.\nBriefly, cryo-preserved bacterial cultures of challenge strains are streaked for isolation on appropriate agar medium, in this case Mueller Hinton II agar. Following incubation to allow growth of the colonies, plates are sealed with parafilm and stored refrigerated for up to two weeks. For preparation of assay inoculum and to ensure low variability, at least 5 colonies are picked from the agar plates with an inoculating loop and aseptically transferred to a culture tube containing 3 mL of Mueller-Hinton Broth (supplemented with divalent cations to required levels based on Manufacturers' certification). The broth culture is grown for 3-5 hours at 37° C. with shaking at 200 rpm. Meanwhile, 2-fold serial dilutions of test compounds are conducted in a 96 well plate with a final volume of 75 μL per well at 2-fold the final desired concentration. After the dilution plates are set up the growing cultures are then diluted in a cuvette containing MH II broth and the optical density is measured at 600 nm. The Inoculum is diluted such that 75 μL of this culture in Mueller-Hinton Broth results in a starting bacterial concentration of 5×10^5 CFU/mL when added to the dilution plates. The plates are incubated for 16-20 hours at 37° C. The MIC values are read visually as the lowest concentration well with no bacterial growth."}, "[2]": {"details": "ATCC27853, P. aeruginosa ATCC 27853, broth microdilution, read-out: MIC P. aeruginosa ATCC 27853"}},
  "note": "Like-named read-outs stand apart in the source and are kept apart here.",
  "data": [
    {"smiles": "CCN1CCN(C(=O)NC(C(=O)N[C@H]2Cc3cccc(C(=O)O)c3OB2O)c2csc(N)n2)C(=O)C1=O", "note": "(stereo partly drawn) [Example 5, (3R)-3-(2-(2-aminothiazol-4-yl)-2-(4-ethyl-2,3-dioxopiperazine-1-carboxamido)acetamido)-2-hydroxy-3,4-dihydro-2H-benzo[e][1,2]oxaborinine-8-carboxylic acid]", "values": [
      {"measurement": "EC50", "setting": "E. coli PBP1a", "result": "< 10", "unit": "µM"}
    ]},
    {"smiles": "CCN1CCN(C(=O)NC(C(=O)N[C@H]2Cc3cc(F)cc(C(=O)O)c3OB2O)c2csc(N)n2)C(=O)C1=O", "note": "(stereo partly drawn) [Example 16, (3R)-3-(2-(2-aminothiazol-4-yl)-2-(4-ethyl-2,3-dioxopiperazine-1-carboxamido)acetamido)-6-fluoro-2-hydroxy-3,4-dihydro-2H-benzo[e][1,2]oxaborinine-8-carboxylic acid]", "values": [
      {"measurement": "MIC", "setting": "[1]", "result": "32 to 64", "unit": "mg/L"}
    ]},
    {"smiles": "CCN1CCN(C(=O)NC(C(=O)N[C@H]2Cc3cccc(C(=O)O)c3OB2O)c2ccc(O)cc2)C(=O)C1=O", "note": "(stereo partly drawn) [Example 27, (3R)-3-(2-(4-ethyl-2,3-dioxopiperazine-1-carboxamido)-2-(4-hydroxyphenyl)acetamido)-2-hydroxy-3,4-dihydro-2H-benzo[e][1,2]oxaborinine-8-carboxylic acid]", "values": [
      {"measurement": "EC50", "setting": "E. coli PBP1a", "result": "< 10", "unit": "µM"},
      {"measurement": "MIC", "setting": "[1]", "result": "8 to 16", "unit": "mg/L"}
    ]},
    {"smiles": "CCN1CCN(C(=O)NC(C(=O)N[C@H]2Cc3cccc(C(=O)O)c3OB2O)c2ccc(O)c(O)c2Cl)C(=O)C1=O", "note": "(stereo partly drawn) [Example 37, (3R)-3-(2-(2-chloro-3,4-dihydroxyphenyl)-2-(4-ethyl-2,3-dioxopiperazine-1-carboxamido)acetamido)-2-hydroxy-3,4-dihydro-2H-benzo[e][1,2]oxaborinine-8-carboxylic acid]", "values": [
      {"measurement": "MIC", "setting": "[1]", "result": "8 to 16", "unit": "mg/L"}
    ]},
    {"smiles": "CCN1CCN(C(=O)NC(C(=O)N[C@H]2Cc3cccc(C(=O)O)c3OB2O)c2cnc(N)s2)C(=O)C1=O", "note": "(stereo partly drawn) [Example 51, (3R)-3-(2-(2-aminothiazol-5-yl)-2-(4-ethyl-2,3-dioxopiperazine-1-carboxamido)acetamido)-2-hydroxy-3,4-dihydro-2H-benzo[e][1,2]oxaborinine-8-carboxylic acid]", "values": [
      {"measurement": "MIC", "setting": "[1]", "result": "8 to 16", "unit": "mg/L"}
    ]},
    {"smiles": "CCN1CCN(C(=O)NC(C(=O)N[C@H]2Cc3cccc(C(=O)O)c3OB2O)c2ccc(O)c(O)c2F)C(=O)C1=O", "note": "(some centres unmarked) [Example 70]", "values": [
      {"measurement": "EC50", "setting": "E. coli PBP1a", "result": "< 10", "unit": "µM"}
    ]},
    {"smiles": "O=C(O)c1cccc2c1OB(O)[C@@H](NC(=O)C(NC(=O)N1CCN(CCF)C(=O)C1=O)c1ccc(O)c(O)c1Cl)C2", "note": "(stereo partly drawn) [Example 71, (3R)-3-(2-(2-chloro-3,4-dihydroxyphenyl)-2-(4-(2-fluoroethyl)-2,3-dioxopiperazine-1-carboxamido)acetamido)-2-hydroxy-3,4-dihydro-2H-benzo[e][1,2]oxaborinine-8-carboxylic acid]", "values": [
      {"measurement": "EC50", "setting": "E. coli PBP1a", "result": "< 10", "unit": "µM"}
    ]},
    {"smiles": "CCN1CCN(C(=O)NC(C(=O)N[C@H]2Cc3cccc(C(=O)O)c3OB2O)c2ccc(S(N)(=O)=O)cc2)C(=O)C1=O", "note": "(stereo partly drawn) [Example 102, (3R)-3-(2-(4-ethyl-2,3-dioxopiperazine-1-carboxamido)-2-(4-sulfamoylphenyl)acetamido)-2-hydroxy-3,4-dihydro-2H-benzo[e][1,2]oxaborinine-8-carboxylic acid]", "values": [
      {"measurement": "EC50", "setting": "E. coli PBP1a", "result": "10 to 100", "unit": "µM"}
    ]},
    {"smiles": "NS(=O)(=O)c1ccc(C(NC(=O)N2CCN(CCF)C(=O)C2=O)C(=O)N[C@H]2Cc3cccc(C(=O)O)c3OB2O)cc1", "note": "(stereo partly drawn) [Example 103, (3R)-3-(2-(4-(2-fluoroethyl)-2,3-dioxopiperazine-1-carboxamido)-2-(4-sulfamoylphenyl)acetamido)-2-hydroxy-3,4-dihydro-2H-benzo[e][1,2]oxaborinine-8-carboxylic acid]", "values": [
      {"measurement": "EC50", "setting": "E. coli PBP1a", "result": "10 to 100", "unit": "µM"}
    ]},
    {"smiles": "NCCCN1CCN(C(=O)NC(C(=O)N[C@H]2Cc3cccc(C(=O)O)c3OB2O)c2ccc(O)c(O)c2Cl)C(=O)C1=O", "note": "(stereo partly drawn) [Example 233, (3R)-3-(2-(4-(3-aminopropyl)-2,3-dioxopiperazine-1-carboxamido)-2-(2-chloro-3,4-dihydroxyphenyl)acetamido)-2-hydroxy-3,4-dihydro-2H-benzo[e][1,2]oxaborinine-8-carboxylic acid]", "values": [
      {"measurement": "MIC", "setting": "P. aeruginosa ATCC 27853; [2]", "result": "2 to 4", "unit": "µg/mL"}
    ]},
    {"smiles": "CCN1C[C@H](CO)N(C(=O)NC(C(=O)N[C@H]2Cc3cccc(C(=O)O)c3OB2O)c2ncc(O)cc2F)C(=O)C1=O", "note": "(stereo partly drawn) [Example 234, (3R)-3-(2-((R)-4-ethyl-6-(hydroxymethyl)-2,3-dioxopiperazine-1-carboxamido)-2-(3-fluoro-5-hydroxypyridin-2-yl)acetamido)-2-hydroxy-3,4-dihydro-2H-benzo[e][1,2]oxaborinine-8-carboxylic acid]", "values": [
      {"measurement": "MIC", "setting": "P. aeruginosa ATCC 27853; ATCC27853, read-out: MIC P. aeruginosa ATCC 27853", "result": "> 128", "unit": "µg/mL"}
    ]},
    {"smiles": "CCNC(=O)NCCN1CCN(C(=O)NC(C(=O)N[C@H]2Cc3cccc(C(=O)O)c3OB2O)c2ccc(O)c(O)c2Cl)C(=O)C1=O", "note": "(stereo partly drawn) [Example 235, (3R)-3-(2-(2-chloro-3,4-dihydroxyphenyl)-2-(4-(2-(3-ethylureido)ethyl)-2,3-dioxopiperazine-1-carboxamido)acetamido)-2-hydroxy-3,4-dihydro-2H-benzo[e][1,2]oxaborinine-8-carboxylic acid]", "values": [
      {"measurement": "MIC", "setting": "P. aeruginosa ATCC 27853; [2]", "result": "8 to 16", "unit": "µg/mL"}
    ]},
    {"smiles": "NCCCN1CCN(C(=O)N[C@@H](C(=O)N[C@H]2Cc3ccc(F)c(C(=O)O)c3OB2O)c2ccc(O)c(O)c2Cl)C(=O)C1=O", "note": "[Example 236, (R)-3-((R)-2-(4-(3-aminopropyl)-2,3-dioxopiperazine-1-carboxamido)-2-(2-chloro-3,4-dihydroxyphenyl)acetamido)-7-fluoro-2-hydroxy-3,4-dihydro-2H-benzo[e][1,2]oxaborinine-8-carboxylic acid]", "values": [
      {"measurement": "MIC", "setting": "P. aeruginosa ATCC 27853; [2]", "result": "0.5 to 1", "unit": "µg/mL"}
    ]},
    {"smiles": "CCN1C[C@H](CO)N(C(=O)NC(C(=O)N[C@H]2Cc3ccc(F)c(C(=O)O)c3OB2O)c2ccc(O)c(O)c2Cl)C(=O)C1=O", "note": "(stereo partly drawn) [Example 237, (3R)-3-(2-(2-chloro-3,4-dihydroxyphenyl)-2-((R)-4-ethyl-6-(hydroxymethyl)-2,3-dioxopiperazine-1-carboxamido)acetamido)-7-fluoro-2-hydroxy-3,4-dihydro-2H-benzo[e][1,2]oxaborinine-8-carboxylic acid]", "values": [
      {"measurement": "MIC", "setting": "P. aeruginosa ATCC 27853; [2]", "result": "0.5 to 1", "unit": "µg/mL"}
    ]},
    {"smiles": "CCN1C[C@H](CCN)N(C(=O)NC(C(=O)N[C@H]2Cc3ccc(F)c(C(=O)O)c3OB2O)c2ccc(O)c(O)c2Cl)C(=O)C1=O", "note": "(stereo partly drawn) [Example 238, (3R)-3-(2-((S)-6-(2-aminoethyl)-4-ethyl-2,3-dioxopiperazine-1-carboxamido)-2-(2-chloro-3,4-dihydroxyphenyl)acetamido)-7-fluoro-2-hydroxy-3,4-dihydro-2H-benzo[e][1,2]oxaborinine-8-carboxylic acid]", "values": [
      {"measurement": "MIC", "setting": "P. aeruginosa ATCC 27853; [2]", "result": "2 to 4", "unit": "µg/mL"}
    ]},
    {"smiles": "CNCCN1CCN(C(=O)NC(C(=O)N[C@H]2Cc3cccc(C(=O)O)c3OB2O)c2ccc(O)c(O)c2Cl)C(=O)C1=O", "note": "(stereo partly drawn) [Example 239, (3R)-3-(2-(2-chloro-3,4-dihydroxyphenyl)-2-(4-(2-(methylamino)ethyl)-2,3-dioxopiperazine-1-carboxamido)acetamido)-2-hydroxy-3,4-dihydro-2H-benzo[e][1,2]oxaborinine-8-carboxylic acid]", "values": [
      {"measurement": "MIC", "setting": "P. aeruginosa ATCC 27853; [2]", "result": "8 to 16", "unit": "µg/mL"}
    ]}
  ]
}
